± gives the standard deviation of the averaged measurements.
Assays:
Details in all cases: 72 h
Caco-2 [1] = assay: cell viability relative to DMSO; higher = less toxic
Calu-3 [2] = assay: as above
HepG2 [3] = assay: as above
U2OS [4] = assay: as above
Vero E6 [5] = assay: as above
Caco-2 [6] = assay: relative viability EC50 (midpoint between 100% and the lowest measured viability); higher = less toxic
Calu-3 [7] = assay: as above
HepG2 [8] = assay: as above
U2OS [9] = assay: as above
Vero E6 [10] = assay: as above
Caco-2 [11] = assay: drug sensitivity score (DSS) for viability; higher = more toxic; extreme values may be limits of the assay
Calu-3 [12] = assay: as above
HepG2 [13] = assay: as above
U2OS [14] = assay: as above
Vero E6 [15] = assay: as above

| SMILES | cell viability (Caco-2 [1]; 1 nM) | cell viability (Caco-2 [1]; 10 nM) | cell viability (Caco-2 [1]; 100 nM) | cell viability (Caco-2 [1]; 1000 nM) | cell viability (Caco-2 [1]; 10000 nM) | cell viability (Calu-3 [2]; 1 nM) | cell viability (Calu-3 [2]; 10 nM) | cell viability (Calu-3 [2]; 100 nM) | cell viability (Calu-3 [2]; 1000 nM) | cell viability (Calu-3 [2]; 10000 nM) | cell viability (HepG2 [3]; 1 nM) | cell viability (HepG2 [3]; 10 nM) | cell viability (HepG2 [3]; 100 nM) | cell viability (HepG2 [3]; 1000 nM) | cell viability (HepG2 [3]; 10000 nM) | cell viability (U2OS [4]; 1 nM) | cell viability (U2OS [4]; 10 nM) | cell viability (U2OS [4]; 100 nM) | cell viability (U2OS [4]; 1000 nM) | cell viability (U2OS [4]; 10000 nM) | cell viability (Vero E6 [5]; 1 nM) | cell viability (Vero E6 [5]; 10 nM) | cell viability (Vero E6 [5]; 100 nM) | cell viability (Vero E6 [5]; 1000 nM) | cell viability (Vero E6 [5]; 10000 nM) | relative viability EC50 (Caco-2 [6]) | relative viability EC50 (Calu-3 [7]) | relative viability EC50 (HepG2 [8]) | relative viability EC50 (U2OS [9]) | relative viability EC50 (Vero E6 [10]) | drug sensitivity score (Caco-2 [11]) | drug sensitivity score (Calu-3 [12]) | drug sensitivity score (HepG2 [13]) | drug sensitivity score (U2OS [14]) | drug sensitivity score (Vero E6 [15]) |
| --- | --- | --- | --- | --- | --- | --- | --- | --- | --- | --- | --- | --- | --- | --- | --- | --- | --- | --- | --- | --- | --- | --- | --- | --- | --- | --- | --- | --- | --- | --- | --- | --- | --- | --- | --- |
| Fc1ccc(CN2CCC(Nc3ccc(C(F)(F)F)nn3)CC2)cc1F | 100% | 95.8% | 101% | 94.7% | 94.1% | 112% | 97.6% | 86.9% | 91.7% | 107% | 90.1% | 108% | 91.2% | 88.1% | 93.4% | 101% | 95.5% | 95.6% | 102% | 101% | 90.3% | 101% | 97.4% | 98.5% | 104% | > 10 µM | > 10 µM | > 10 µM | > 10 µM | > 10 µM | 0 | 0 | 0.8 | 0 | 0 |
| O=C(O)C1=C(CSc2nnnn2CS(=O)(=O)O)CS[C@@H]2[C@H](NC(=O)[C@H](O)c3ccccc3)C(=O)N12 [Cefonicid (sodium)] | 97.8% | 102% | 93.4% | 97.7% | 102% | 95.7% | 97.2% | 97.9% | 96.6% | 95.8% | 103% | 100% | 92.2% | 103% | 97.7% | 95.1% | 99.2% | 94.3% | 101% | 94.4% | 99.9% | 98.9% | 102% | 99.1% | 99.5% | > 10 µM | > 10 µM | > 10 µM | > 10 µM | > 10 µM | 0 | 0 | 0 | 0 | 0 |
| CS(=O)(=O)c1ccc([C@@H](CC2CCCC2)C(=O)Nc2nccs2)cc1 [Ro-28-1675] | 92% | 97.8% | 102% | 106% | 92.2% | 103% | 100% | 114% | 99.6% | 99.3% | 97.2% | 96.4% | 108% | 90.8% | 103% | 101% | 96.1% | 101% | 102% | 98.9% | 95.5% | 95.2% | 96.8% | 91.1% | 98.9% | > 10 µM | > 10 µM | > 10 µM | > 10 µM | > 10 µM | 0 | 0 | 0 | 0 | 0 |
| C[C@]12CC[C@H](O)CC1=CC[C@@H]1[C@@H]2CC[C@]2(C)C(c3cccnc3)=CC[C@@H]12 [Abiraterone (CB-7598)] | 87.1% | 92.3% | 100% | 101% | 98.1% | 96% | 107% | 100% | 98.3% | 100% | 97.7% | 92.7% | 103% | 95.1% | 103% | 95.3% | 101% | 95.7% | 103% | 104% | 99.9% | 95.2% | 93.9% | 96.4% | 112% | > 10 µM | > 10 µM | > 10 µM | > 10 µM | > 10 µM | 0 | 0 | 0 | 0 | 0 |
| NC[C@H]1O[C@H](O[C@H]2[C@H](O[C@@H]3O[C@H](CO)[C@@H](O)[C@H]3O)[C@@H](O)[C@H](N)C[C@@H]2N)[C@H](N)[C@@H](O)[C@@H]1O [ribostamycin-sulfate] | 94.5 ± 5% | 97.1 ± 2.4% | 87.5 ± 12% | 93 ± 2% | 88.5 ± 9.1% | 93.8 ± 8.4% | 97.7 ± 13% | 90.5 ± 5% | 104 ± 9.5% | 89.6 ± 0.99% | 99.2 ± 0.85% | 106.8 ± 0.21% | 97 ± 5.2% | 102 ± 4.5% | 93.6 ± 8.2% | 96.8 ± 1.1% | 98.8 ± 2.2% | 96.3 ± 2.3% | 101 ± 4.4% | 98.5 ± 1.5% | 103 ± 8.4% | 94 ± 5.7% | 100 ± 4.7% | 97.2 ± 2.3% | 102 ± 2.2% | > 10 µM | > 10 µM | > 10 µM | > 10 µM | > 10 µM | 0.9 ± 1.3 | 0 | 0.05 ± 0.071 | 0 | 0 |
| Cc1[nH]c(=O)c(C#N)cc1-c1ccncc1 [milrinone] | 100% | 98.4% | 103% | 87.5% | 85.9% | 95.3% | 89.1% | 99.5% | 108% | 101% | 102% | 101% | 98.3% | 96.2% | 106% | 103% | 95.6% | 99.9% | 97.7% | 100% | 95.6% | 101% | 95.3% | 97.6% | 94.5% | > 10 µM | > 10 µM | > 10 µM | > 10 µM | > 10 µM | 0.9 | 0 | 0 | 0 | 0 |
| C[C@@]1(O)[C@H](O)[C@@H](CO)O[C@H]1n1ccc(N)nc1=O [NM107] | 93% | 97.3% | 95.9% | 91.2% | 103% | 99.1% | 104% | 95% | 93.9% | 84.6% | 99% | 107% | 106% | 111% | 110% | 98.3% | 93.4% | 100% | 94.8% | 101% | 96% | 100% | 88.7% | 99.4% | 113% | > 10 µM | > 10 µM | > 10 µM | > 10 µM | > 10 µM | 0 | 0.3 | 0 | 0 | 0 |
| C[C@]12C=CC(=O)C=C1CC[C@@H]1[C@@H]2[C@@H](O)C[C@@]2(C)[C@H]1CC[C@]2(O)C(=O)COC(=O)CCC(=O)O [prednisolone-hemisuccinate] | 94.7% | 103% | 93.3% | 91.3% | 79.8% | 98.6% | 102% | 97.2% | 102% | 88.9% | 112% | 92.5% | 91.7% | 98.5% | 108% | 97.5% | 103% | 96% | 100% | 93.6% | 99.3% | 99.9% | 95.8% | 90% | 98.6% | > 10 µM | > 10 µM | > 10 µM | > 10 µM | > 10 µM | 1.1 | 0 | 0 | 0 | 0 |
| CSCC[C@H](NC(=O)[C@H](Cc1ccccc1)NC(=O)CNC(=O)CNC(=O)[C@@H](N)Cc1ccc(O)cc1)C(=O)O [metenkephalin] | 94.7% | 94.9% | 100% | 96.4% | 97.2% | 102% | 99.7% | 105% | 94.3% | 101% | 96.6% | 99% | 91% | 115% | 107% | 103% | 97.1% | 102% | 102% | 102% | 93.8% | 96.5% | 96.7% | 98.4% | 108% | > 10 µM | > 10 µM | > 10 µM | > 10 µM | > 10 µM | 0 | 0 | 0 | 0 | 0 |
| C[C@@H]1O[C@@H](O[C@H]2[C@H](Oc3cc(O)c(C(=O)CCc4ccc(O)cc4)c(O)c3)O[C@H](CO)[C@@H](O)[C@@H]2O)[C@H](O)[C@H](O)[C@H]1O [naringin-dihydrochalcone] | 94.2% | 92.2% | 99.5% | 102% | 96.3% | 95.6% | 90.9% | 92.7% | 101% | 105% | 110% | 93.2% | 105% | 90.9% | 101% | 93.1% | 96.2% | 94.2% | 102% | 95.6% | 104% | 104% | 104% | 102% | 99.9% | > 10 µM | > 10 µM | > 10 µM | > 10 µM | > 10 µM | 0 | 0 | 0 | 0 | 0 |
| Nc1ccn([C@H]2CO[C@@H](CO)S2)c(=O)n1 [apricitabine] | 99.9% | 91.7% | 98.9% | 103% | 105% | 101% | 101% | 98.5% | 92.5% | 102% | 94.9% | 105% | 104% | 99.8% | 103% | 98.4% | 94.2% | 96.6% | 102% | 100% | 93.7% | 96.9% | 99.1% | 96.4% | 104% | > 10 µM | > 10 µM | > 10 µM | > 10 µM | > 10 µM | 0 | 0 | 0 | 0 | 0 |
| Fc1ccc(-c2nc(-c3c(F)cccc3F)[nH]c2-c2ccncc2)cc1 [TA-01] | 105% | 109% | 99.9% | 84.7% | 96.1% | 104% | 107% | 97.2% | 85.2% | 94.6% | 108% | 97.3% | 94.3% | 99.4% | 98.4% | 108% | 112% | 101% | 98.6% | 95.9% | 112% | 106% | 95% | 94.7% | 93.7% | > 10 µM | > 10 µM | > 10 µM | > 10 µM | > 10 µM | 1.5 | 1.6 | 0 | 0 | 0 |
| Cc1ccc(OC[C@@H](O)[C@H](C)NC(C)C)c2c1CCC2 (racemic) [ICI-118,551] | 109% | 103% | 99.2% | 109% | 97.8% | 121% | 98.9% | 109% | 105% | 112% | 111% | 106% | 100% | 111% | 95.3% | 108% | 98.5% | 113% | 100% | 113% | 98.6% | 94.2% | 101% | 90.5% | 94.1% | > 10 µM | > 10 µM | > 10 µM | > 10 µM | > 10 µM | 0 | 0 | 0 | 0 | 0 |
| N[C@@H](CSCCCO)C(=O)O [fudosteine] | 96.1% | 93.9% | 97.3% | 97.2% | 106% | 102% | 111% | 107% | 96.8% | 115% | 93.1% | 83.3% | 96.1% | 88.8% | 105% | 96.4% | 101% | 97.2% | 102% | 108% | 97.7% | 92.7% | 99.6% | 94.1% | 100% | > 10 µM | > 10 µM | > 10 µM | > 10 µM | > 10 µM | 0 | 0 | 0 | 0 | 0 |

Reference: the supplement of paper PMC13380429
